This is an account of results in paper PMC5739422, “Metabolomic profiling and stable isotope labelling of Trichomonas vaginalis and Tritrichomonas foetus reveal major differences in amino acid metabolism including the production of 2-hydroxyisocaproic acid, cystathionine and S-methylcysteine” (PLoS ONE, 2017).

For the assay, the system named is recombinant T. vaginalis cysteine synthase (CS). The assay can be described thus: coupled assay with MGL1 and LDH, NADH oxidation at […] nm. The format is biochemical, Trichomonas vaginalis. The following applies: 200 mM potassium phosphate pH 7.8, 37°C.

Regarding `CS` [CH3SNa], the Km (SMC synthase reaction, 10 mM OPS) stood at 4.3 ± 1.6 mM.

Regarding `N[C@@H](COP(=O)(O)O)C(=O)O` [OPS], for the setting “cysteine synthase reaction, 3 mM Na2S”, the Michaelis-Menten constant (Km) came out at 18.2 ± 0.8 mM.

What is called Km is the concentration of substrate that gives half-maximal velocity.
